Active and inactive are the calls of the source. The rule behind the calls is not given here. Where a SMILES comes first, the peptide text is derived from it.
What was measured:
[1] = target: T1, NAD-dependent protein deacetylase sirtuin-1 (Homo sapiens, UniProt Q96EB6); assay: Inhibition of human SIRT1 using peptide substrate assessed as deacetylase activity
T1 sequence (Q96EB6 whole entry): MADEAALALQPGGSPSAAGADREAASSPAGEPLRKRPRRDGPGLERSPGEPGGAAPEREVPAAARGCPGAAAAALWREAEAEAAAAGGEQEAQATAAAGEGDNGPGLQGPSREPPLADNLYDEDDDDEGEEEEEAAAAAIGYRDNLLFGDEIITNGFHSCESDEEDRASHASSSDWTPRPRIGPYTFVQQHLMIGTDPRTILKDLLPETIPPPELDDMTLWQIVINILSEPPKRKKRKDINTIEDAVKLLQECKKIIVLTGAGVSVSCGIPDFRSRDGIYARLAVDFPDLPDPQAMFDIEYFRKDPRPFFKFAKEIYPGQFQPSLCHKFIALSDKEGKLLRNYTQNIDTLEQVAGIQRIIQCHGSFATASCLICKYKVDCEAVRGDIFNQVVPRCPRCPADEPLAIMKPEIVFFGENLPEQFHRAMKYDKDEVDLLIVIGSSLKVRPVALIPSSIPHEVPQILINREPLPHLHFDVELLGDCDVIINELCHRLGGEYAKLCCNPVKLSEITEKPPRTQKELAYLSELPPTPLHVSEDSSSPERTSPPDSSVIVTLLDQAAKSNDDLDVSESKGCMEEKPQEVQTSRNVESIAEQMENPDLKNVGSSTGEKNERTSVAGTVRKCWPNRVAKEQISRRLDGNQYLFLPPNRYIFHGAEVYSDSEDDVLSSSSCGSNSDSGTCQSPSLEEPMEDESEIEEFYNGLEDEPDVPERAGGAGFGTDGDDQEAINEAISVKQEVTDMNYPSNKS

[2] = Proteolytic stability of the compound assessed as degradation after 30 mins by HPLC in presence of pronase; assay type: ADME; conditions: 0.5 h
[3] = target: T2, NAD-dependent protein deacetylase sirtuin-1 (Homo sapiens) (UniProt Q96EB6); assay: Activity of GST-tagged SIRT1 (unknown origin) assessed as compound deacetylation measured up to 4 hrs by sirutin time course assay
T2 sequence (whole entry): T1 sequence (Q96EB6 whole entry)

[4] = target: T3, Histone deacetylase 8 (Homo sapiens) (UniProt Q9BY41); assay: Activity of recombinant HDAC8 (unknown origin) assessed as compound deacetylation measured up to 4 hrs by time course assay
T3 sequence (whole entry): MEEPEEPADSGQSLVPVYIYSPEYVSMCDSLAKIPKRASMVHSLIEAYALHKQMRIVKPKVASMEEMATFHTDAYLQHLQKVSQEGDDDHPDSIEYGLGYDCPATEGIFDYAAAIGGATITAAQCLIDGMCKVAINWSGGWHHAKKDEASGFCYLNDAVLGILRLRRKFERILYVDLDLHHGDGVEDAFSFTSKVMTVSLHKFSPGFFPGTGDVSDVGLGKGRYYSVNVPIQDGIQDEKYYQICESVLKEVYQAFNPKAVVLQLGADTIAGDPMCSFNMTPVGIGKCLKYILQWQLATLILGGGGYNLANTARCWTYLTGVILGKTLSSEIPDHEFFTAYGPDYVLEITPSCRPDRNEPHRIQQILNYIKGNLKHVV

[5] = target: Histone deacetylase 1 (Homo sapiens) (UniProt Q13547); assay: Activity of HDAC1 in human HeLa cells nuclear extract assessed as compound deacetylation measured up to 2 hrs by time course assay; assay type: cell-free
[6] = target: Histone deacetylase 2 (Homo sapiens) (UniProt Q92769); assay: Activity of HDAC2 in human HeLa cells nuclear extract assessed as compound deacetylation measured up to 2 hrs by time course assay; assay type: cell-free
[7] = target: T2, NAD-dependent protein deacetylase sirtuin-1 (Homo sapiens); assay: Inhibition of SIRT1 in human HCT116 cells assessed as increase in p53 acetylation level by Western blot analysis; assay type: cell-based; conditions: HCT-116
[8] = target: T2, NAD-dependent protein deacetylase sirtuin-1 (Homo sapiens); assay: Inhibition of SIRT1 in human HCT116 cells assessed as increase in p53 acetylation level at 3 uM by Western blot analysis; assay type: cell-based; conditions: HCT-116
[9] = target: T4, NAD-dependent protein deacetylase sirtuin-2 (Homo sapiens, UniProt Q8IXJ6); assay: Inhibition of GST-tagged SIRT2 (unknown origin) by HPLC assay
T4 sequence (Q8IXJ6 whole entry): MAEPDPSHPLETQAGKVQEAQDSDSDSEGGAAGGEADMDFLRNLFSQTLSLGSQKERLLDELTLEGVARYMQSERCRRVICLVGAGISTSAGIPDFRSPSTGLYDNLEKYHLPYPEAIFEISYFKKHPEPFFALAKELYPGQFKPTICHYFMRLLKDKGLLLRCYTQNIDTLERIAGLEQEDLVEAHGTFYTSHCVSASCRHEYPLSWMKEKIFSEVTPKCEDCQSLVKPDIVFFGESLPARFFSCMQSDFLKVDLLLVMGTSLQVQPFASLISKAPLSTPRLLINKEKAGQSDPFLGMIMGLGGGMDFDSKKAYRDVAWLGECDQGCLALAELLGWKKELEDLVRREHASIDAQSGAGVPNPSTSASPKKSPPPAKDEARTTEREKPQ

[10] = target: T5, NAD-dependent protein deacetylase sirtuin-3, mitochondrial (Homo sapiens, UniProt Q9NTG7); assay: Inhibition of GST-tagged SIRT3 (unknown origin) by HPLC assay
T5 sequence (Q9NTG7 whole entry): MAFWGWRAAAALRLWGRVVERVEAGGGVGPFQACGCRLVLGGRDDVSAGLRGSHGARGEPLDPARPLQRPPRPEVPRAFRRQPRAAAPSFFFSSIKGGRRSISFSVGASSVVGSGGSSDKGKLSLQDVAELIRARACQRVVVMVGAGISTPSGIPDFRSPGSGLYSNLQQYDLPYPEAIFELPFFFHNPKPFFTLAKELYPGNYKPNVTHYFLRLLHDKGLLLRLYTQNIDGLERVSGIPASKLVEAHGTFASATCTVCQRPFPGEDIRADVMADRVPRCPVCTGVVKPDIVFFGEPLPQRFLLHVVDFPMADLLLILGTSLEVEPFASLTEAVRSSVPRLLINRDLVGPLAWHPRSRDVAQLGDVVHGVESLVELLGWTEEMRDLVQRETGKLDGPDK

[11] = target: T6, NAD-dependent protein deacetylase sirtuin-2 (Homo sapiens) (UniProt Q8IXJ6); assay: Ratio of AGK2 to compound in GST-tagged SIRT2 (unknown origin)
T6 sequence (whole entry): T4 sequence (Q8IXJ6 whole entry)

[12] = target: T6, NAD-dependent protein deacetylase sirtuin-2 (Homo sapiens); assay: Activity of GST-tagged SIRT2 (unknown origin) assessed as compound deacetylation measured up to 4 hrs by sirutin time course assay
[13] = target: T7, NAD-dependent protein deacetylase sirtuin-3, mitochondrial (Homo sapiens) (UniProt Q9NTG7); assay: Activity of GST-tagged SIRT3 (unknown origin) assessed as compound deacetylation measured up to 4 hrs by sirutin time course assay
T7 sequence (whole entry): T5 sequence (Q9NTG7 whole entry)

[14] = target: T2, NAD-dependent protein deacetylase sirtuin-1 (Homo sapiens); assay: Inhibition of SIRT1 in human HCT116 cells assessed as increase in p53 acetylation level at 5 uM by Western blot analysis; assay type: cell-based; conditions: HCT-116
[15] = target: T2, NAD-dependent protein deacetylase sirtuin-1 (Homo sapiens); assay: Inhibition of SIRT1 in human HCT116 cells assessed as increase in p53 acetylation level at 500 uM by Western blot analysis; assay type: cell-based; conditions: HCT-116
[16] = target: T2, NAD-dependent protein deacetylase sirtuin-1 (Homo sapiens); conditions: HCT-116, 10 uM
Description: Inhibition of SIRT1 in human HCT116 cells assessed as increase in p53 acetylation level at 10 uM by Western blot analysis

Chain of Histone deacetylase 1 (Homo sapiens) (Q13547 whole entry): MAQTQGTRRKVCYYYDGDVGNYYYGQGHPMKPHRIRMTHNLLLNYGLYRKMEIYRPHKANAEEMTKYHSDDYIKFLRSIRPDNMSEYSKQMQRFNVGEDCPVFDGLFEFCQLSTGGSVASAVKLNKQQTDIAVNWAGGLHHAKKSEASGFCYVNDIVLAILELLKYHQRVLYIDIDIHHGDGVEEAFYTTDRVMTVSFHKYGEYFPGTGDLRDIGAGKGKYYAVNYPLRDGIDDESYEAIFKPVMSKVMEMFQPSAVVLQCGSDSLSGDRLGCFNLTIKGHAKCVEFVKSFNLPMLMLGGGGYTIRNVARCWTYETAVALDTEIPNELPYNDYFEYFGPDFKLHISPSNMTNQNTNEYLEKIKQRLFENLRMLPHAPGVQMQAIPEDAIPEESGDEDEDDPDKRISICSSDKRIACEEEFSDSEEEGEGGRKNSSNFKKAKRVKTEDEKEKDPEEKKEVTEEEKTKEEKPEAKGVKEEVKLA
Chain of Histone deacetylase 2 (Homo sapiens) (Q92769 whole entry): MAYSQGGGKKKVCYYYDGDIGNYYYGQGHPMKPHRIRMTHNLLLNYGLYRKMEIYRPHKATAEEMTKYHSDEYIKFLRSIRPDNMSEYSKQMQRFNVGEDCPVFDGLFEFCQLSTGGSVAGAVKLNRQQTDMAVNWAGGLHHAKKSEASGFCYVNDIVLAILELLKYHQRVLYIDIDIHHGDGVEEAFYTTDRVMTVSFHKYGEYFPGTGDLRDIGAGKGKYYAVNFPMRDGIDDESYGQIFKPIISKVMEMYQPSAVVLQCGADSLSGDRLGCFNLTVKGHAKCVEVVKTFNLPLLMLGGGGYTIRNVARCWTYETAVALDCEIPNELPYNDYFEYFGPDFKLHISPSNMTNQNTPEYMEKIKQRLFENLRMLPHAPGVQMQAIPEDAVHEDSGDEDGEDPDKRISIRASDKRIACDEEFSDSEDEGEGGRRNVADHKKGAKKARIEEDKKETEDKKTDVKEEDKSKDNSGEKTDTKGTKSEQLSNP

## CC(=O)NCCCC[C@H](NC(=O)[C@H](CCCCNC(C)=S)NC(=O)[C@H](CCCCNC(C)=O)NC(C)=O)C(N)=O
[1]
  IC50: 2.1 µM
[2]
  Stability: Stable
[3]
  Activity: inactive
[4]
  Activity: inactive
[5]
  Activity: 19%
[6]
  Activity: 19%
[7]
  inhibition: Dose-dependent effect
[8]
  inhibition: Active
[9]
  IC50: 2.4 µM
[10]
  IC50: 4.5 µM
[11]
  Ratio: 23
[12]
  Activity: inactive
[13]
  Activity: inactive

## CSCC[C@H](NC(=O)[C@H](Cc1ccc(O)cc1)NC(=O)[C@H](CCCCNC(C)=S)NC(=O)[C@H](CCCCN)NC(=O)[C@H](Cc1c[nH]cn1)NC(C)=O)C(N)=O (HELM PEPTIDE1{[ac].H.K.[CC(=S)NCCCC[C@H](N[*:1])C(=O)[*:2]].Y.M.[am]}$$$$V2.0)
[1]
  IC50: 3.5 µM

## CC(=O)NCCC[C@H](NC(=O)[C@H](CCCCNC(C)=S)NC(=O)[C@H](CCCNC(C)=O)NC(C)=O)C(N)=O
[1]
  IC50: 5.9 µM
[2]
  Stability: Stable
[3]
  Activity: inactive
[4]
  Activity: inactive
[5]
  Activity: inactive
[6]
  Activity: inactive
[9]
  IC50: 2.9 µM
[10]
  IC50: 4.3 µM
[12]
  Activity: inactive
[13]
  Activity: inactive
[14]
  inhibition: Active

## CSCC[C@H](NC(=O)[C@H](CC(C)C)NC(=O)[C@H](CCCC/N=C(/C)S)NC(=O)[C@H](CCCCN)NC(=O)[C@H](Cc1c[nH]cn1)NC(=O)[C@H](CCCN=C(N)N)NC(=O)[C@H](CO)NC(=O)[C@@H](NC(=O)[C@H](CO)NC(=O)[C@H](CCC(N)=O)NC(=O)CNC(=O)[C@H](CCCCN)NC(=O)[C@@H](N)CCCCN)[C@@H](C)O)C(=O)N[C@@H](Cc1ccccc1)C(=O)N[C@@H](CCCCN)C(=O)N[C@H](C(=O)N[C@@H](CCC(=O)O)C(=O)NCC(=O)O)[C@@H](C)O
[15]
  inhibition: inactive

## CC(=S)NCCCC[C@H](NC(=O)OCc1ccccc1)C(=O)Nc1ccccc1
[1]
  IC50: 140 µM
[16]
  inhibition: inactive

## CSCC[C@H](NC(=O)[C@H](CC(C)C)NC(=O)[C@H](CCCCNC(C)=S)NC(=O)[C@H](CCCCNC(C)=O)NC(=O)[C@H](Cc1c[nH]cn1)NC(C)=O)C(N)=O (HELM PEPTIDE1{[ac].H.K.[CC(=S)NCCCC[C@H](N[*:1])C(=O)[*:2]].L.M.[am]}|PEPTIDE2{[ac]}$PEPTIDE1,PEPTIDE2,3:R3-1:R2$$$V2.0)
[1]
  IC50: 4.1 µM

## CSCC[C@H](NC(=O)[C@H](CCCCNC(C)=O)NC(=O)[C@H](CCCCNC(C)=S)NC(=O)[C@H](CCCCNC(C)=O)NC(=O)[C@H](Cc1c[nH]cn1)NC(C)=O)C(N)=O (HELM PEPTIDE1{[ac].H.K.[CC(=S)NCCCC[C@H](N[*:1])C(=O)[*:2]].K.M.[am]}|PEPTIDE2{[ac]}|PEPTIDE3{[ac]}$PEPTIDE1,PEPTIDE2,3:R3-1:R2|PEPTIDE1,PEPTIDE3,5:R3-1:R2$$$V2.0)
[1]
  IC50: 2 µM

## CSCC[C@H](NC(=O)[C@H](Cc1ccc(O)cc1)NC(=O)[C@H](CCCCNC(C)=S)NC(=O)[C@H](Cc1ccc(O)cc1)NC(=O)[C@H](Cc1c[nH]cn1)NC(C)=O)C(N)=O (HELM PEPTIDE1{[ac].H.Y.[CC(=S)NCCCC[C@H](N[*:1])C(=O)[*:2]].Y.M.[am]}$$$$V2.0)
[1]
  IC50: 6 µM

## CSCC[C@H](NC(=O)[C@H](CC(C)C)NC(=O)[C@H](CCCCNC(C)=S)NC(=O)[C@H](Cc1ccc(O)cc1)NC(=O)[C@H](Cc1c[nH]cn1)NC(C)=O)C(N)=O (HELM PEPTIDE1{[ac].H.Y.[CC(=S)NCCCC[C@H](N[*:1])C(=O)[*:2]].L.M.[am]}$$$$V2.0)
[1]
  IC50: 4.2 µM

## CSCC[C@H](NC(=O)[C@H](CCCCNC(C)=O)NC(=O)[C@H](CCCCNC(C)=S)NC(=O)[C@H](CCCCN)NC(=O)[C@H](Cc1c[nH]cn1)NC(C)=O)C(N)=O (HELM PEPTIDE1{[ac].H.K.[CC(=S)NCCCC[C@H](N[*:1])C(=O)[*:2]].K.M.[am]}|PEPTIDE2{[ac]}$PEPTIDE1,PEPTIDE2,5:R3-1:R2$$$V2.0)
[1]
  IC50: 0.7 µM
